# Results: US9908848B2, “Amide derivatives of lactam based N-acylethanolamine acid amidase (NAAA) inhibitors” (The Regents of the University of California, priority 2013, dated 2018)
# What was measured:
# [1] = biological target: T1, Rat AC (r-AC), Acid Ceramidase (Rattus norvegicus, UniProt Q6P7S1); assay: Rat AC (r-AC) assay, UPLC/MS; type: biochemical; conditions: read-out: r-AC UPLC/MS assay % inhib.
# T1 construct: V5 (C); His (C); made in house; host or cells: HEK293 cells transfected with pEF6-rAC-V5/His, selected with G418; soluble fraction after freeze/thaw
# T1 sequence (Q6P7S1 21-394): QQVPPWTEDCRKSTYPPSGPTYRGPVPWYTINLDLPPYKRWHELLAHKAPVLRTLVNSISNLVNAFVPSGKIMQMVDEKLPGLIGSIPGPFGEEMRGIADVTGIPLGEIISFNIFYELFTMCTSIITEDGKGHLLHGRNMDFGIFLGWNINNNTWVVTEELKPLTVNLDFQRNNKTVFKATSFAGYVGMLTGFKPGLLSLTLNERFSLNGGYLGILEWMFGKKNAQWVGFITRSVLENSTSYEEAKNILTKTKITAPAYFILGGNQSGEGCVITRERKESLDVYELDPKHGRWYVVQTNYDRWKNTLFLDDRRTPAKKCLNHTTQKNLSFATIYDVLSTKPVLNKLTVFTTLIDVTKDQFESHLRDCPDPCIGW
# Description: The selectivity of selected compounds versus Acid Ceramidase (AC) was determined.
# Rat AC (r-AC) was cloned from a brain cDNA library using primers based on the sequence obtained from the National Center for Biotechnology Information (NCBI) database: 5′rAC (5′-GACCATGCTGGGCCGTAGT-3′) (SEQ ID NO:1) and 3′rAC (5′-CCAGCCTATACAAGGGTCT-3′) (SEQ ID NO:2). The PCR (High Fidelity PCR Master, Roche) product was subcloned into a pEF6-V5/His vector (Invitrogen) to construct a mammalian expression vector encoding V5/His-tagged rat AC. HEK293 cells were transfected with pEF6-rAC-V5/His using Super-Fect reagent (Qiagen) and screened with G418 (0.3 mg/mL). Cells were suspended in 20 mM Tris HCl (pH 7.5) containing 0.32M sucrose, sonicated and centrifuged at 800×g for 15 min at 4° C. The supernatants were centrifuged again at 12,000×g for 30 min at 4° C. The pellets were suspended in phosphate-buffered saline (PBS) and subjected to 2 freeze-thaw cycles at −80° C. The suspensions were centrifuged at 105,000×g for 1 hour at 4° C. The supernatants containing recombinant AC were kept at −80° C. until use. Protein concentration was measured using the bicinchoninic acid (BCA) assay (Pierce). Recombinant rat AC (50 μg) was preincubated with inhibitors (final DMSO concentration 1%) in assay buffer (100 mM sodium phosphate, 0.1% Nonidet P-40, 150 mM NaCl, 3 mM DTT, 100 mM sodium citrate, pH 4.5) for 30 min at 37° C. Reactions were started by the addition of 100 μM N-lauroyl ceramide (Nu-Chek Prep, Elysian, Minn.) and carried on for 30 min at 37° C. Reactions were stopped by addition of a mixture of chloroform/methanol (2:1, vol/vol) containing 1 nmol of heptadecanoic acid (HDA; NuChek Prep). The organic phases were collected, dried under N2, and analyzed by LC-MS in the negative-ion mode using […] (HDA) as internal standard (m/z=199 for lauric acid, m/z=269 for HDA). HDA was eluted on an XDB Eclipse C18 column isocratically at 2.2 mL/min for 1 min with a solvent mixture of 95% methanol and 5% water, both containing 0.25% acetic acid and 5 mM ammonium acetate. The column temperature was 50° C. Electrospray ionization (ESI) was in the negative mode, capillary voltage as 4 kV, and fragmentor voltage was 100 V. N2 was used as drying gas at a flow rate of 13 L/min and a temperature of 350° C. Nebulizer pressure was set at 60 psi. We monitored […] in the selected-ion monitoring (SIM) mode using HDA as internal standard. Calibration curves were generated using commercial lauric acid (Nu-Chek Prep; m/z=199).
# human NAAA = biological target: T2, human NAAA (Homo sapiens, UniProt Q02083); assay: Fluorogenic h-NAAA assay; type: biochemical; conditions: recombinant HEK-hNAAA preparation
# T2 construct: made in house; host or cells: HEK293 cells, stably transfected; soluble fraction after freeze/thaw
# T2 sequence (Q02083 29-359): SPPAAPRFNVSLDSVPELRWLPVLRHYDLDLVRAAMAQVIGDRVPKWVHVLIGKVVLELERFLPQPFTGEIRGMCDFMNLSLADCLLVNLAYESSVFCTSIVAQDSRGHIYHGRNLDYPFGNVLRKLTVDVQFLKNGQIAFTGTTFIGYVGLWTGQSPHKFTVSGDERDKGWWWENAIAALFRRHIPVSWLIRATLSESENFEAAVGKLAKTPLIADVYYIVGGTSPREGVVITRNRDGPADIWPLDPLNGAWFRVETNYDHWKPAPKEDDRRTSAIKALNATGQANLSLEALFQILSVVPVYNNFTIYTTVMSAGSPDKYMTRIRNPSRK
# Description: Hek293 cells stably transfected with the human NAAA coding sequence cloned from a human spleen cDNA library were used as enzyme source. Recombinant HEK-hNAAA pellets were resuspended in homogenizing buffer, and sonicated. Samples were centrifuged at 800×g for 15 min at 4° C. and the supernatants were ultracentrifuged at 12,000×g for 30 min at 4° C. The pellets were resuspended in PBS pH 7.4 on ice and subjected to a freeze/thaw cycle at −80° C. (two freeze/thaw cycles at −80° C. for Examples 34-37). The suspension was finally centrifuged at 105,000×g for 1 h at 4° C. Protein concentration was measured and samples stored at −80° C. until use.
# The assay was run in Optiplate 96-wells black plates, in a total reaction volume of 200 μL. NAAA protein preparation (4.0 μg for Examples except 34-37, which were 20.0 μg) was pre-incubated for 10 min with various concentrations of test compounds or vehicle control (5% DMSO) in 100 mM citrate/phosphate buffer (pH 4.5) containing 3.0 mM DTT, 0.1% Triton X-100, 0.05% BSA, 150 mM NaCl. N-(4-methyl-2-oxo-chromen-7-yl)-hexadecanamide was used as a substrate (5.0 μM) and the reaction carried over for 30 min at 37° C. The samples were then read in a Perkin Elmer Envision plate reader using an excitation wavelength of 360 nm and emission 460 nm. IC50 values were calculated by non-linear regression analysis of log [concentration]/inhibition curves using GraphPad Prism 5 (GraphPad Software Inc., CA—USA) applying a standard slope curve fitting.
inhibition at 1 µM [1] [%],IC50 (human NAAA) [nM],Compound
70,86,"CCCCCCCCCC(=O)N[C@H]1CNC1=O [Example 23, N-[(3S)-2-Oxoazetidin-3-yl]-decanamide]"
45,210,"O=C(CCCCCCC1CCCCC1)N[C@H]1CNC1=O [Example 30, 7-Cyclohexyl-N-[(3S)-2-oxoazetidin-3-yl]-heptanamide]"
